Source: patent publication US20180221306A1, “PHARMACEUTICAL COMPOSITIONS OF 5-HYDROXY-2-METHYLNAPHTHALENE-1,4-DIONE” (PellFiCure Pharmaceuticals, Inc., priority 2016, published 2018)
≈ marks a conversion by molar mass, not a printed value. Marks after values point to notes of the source that are not given here.

Tests used:
[1] = test system: PTEN-CaP2/H2B-GFP tumors; assay: IVM chamber model of castration resistant prostate cancer (CRPC), tumor size; format: in vivo, mouse
Excerpt: Mouse prostate cancer cells PTEN-CaP2 were initially derived from the PTEN-P2 cell line and are homozygous for PTEN deletion. Complete ablation of PTEN results in intrinsic androgen-independence in the PTEN-null model. Although PTEN-CaP2 tumors express AR, they are resistant to castration in the absence of prior exposure to ADT.

[2] = test system: Sprague Dawley rats; assay: 7-day dose range-finding study; format: in vivo, rat
Description: A single-dose maximum tolerated dose (MTD) phase A study and a 7-day dose range-finding (DRF) phase B study were conducted in Sprague Dawley rats by MPI Research, Inc. (Mattawan, Mich.). A total of 62 males and 62 females rats were assigned to the study, which was performed in accordance with all current regulations. Animals were housed in standard conditions and had ad libitum access to food and water. Healthy animals of each sex were randomized into treatment groups using a standard, by weight, measured value randomization procedure. Compound I was administered by oral gavage, once at each dose level in Phase A (acute), or once daily for 7 consecutive days in Phase B. Oral gavage was chosen because the oral route is the intended route of administration in humans. Animals were observed twice daily for morbidity and mortality and were euthanatized for humane reasons where appropriate. An initial starting dose of 50 mg/kg was used for Phase A. Subsequent doses were increased or decreased based on the response to the preceding dose. […] The dose levels used in Phase B were based on the MTD identified in Phase A.
Daily doses of 0 (vehicle), 10, 30 and 100 mg/kg were then administered to Sprague Dawley rats by oral gavage for seven days for the dose-range finding study. […] Adverse events included decreased body weight or decreased body weight gain, decreased food consumption, adverse effects on various pathological parameters and Compound I-related macroscopic and microscopic abnormalities in multiple organs. […] The toxicity profile of Compound I is encouraging considering that the drug is effective in rodents at much lower doses. This toxicity-to-effectiveness dose ratio provides, potentially, a wide therapeutic window.

[3] = physchem; format: physicochemical; settings: for solubility thermodynamic: 25 °C, thermodynamic from solid
Description: The maximum quantity of Compound I that can be completely dissolved at 25° C. in the several aqueous buffers and other solvents was evaluated using HPLC. […] Samples were injected with a 250 μg/ml nominal concentration. For samples of unknown concentration, dilutions were made to target the linear range of the method. All samples were quantified based on a linear standard curve. Measurements were performed by Pharmatek Laboratories, Inc. (San Diego, Calif.) with industry-standard quality controls.

[4] = Forced degradation: stability of Compound I formulations in selected solvents and Carrier A (HPLC)
[5] = 10% HPβCD, 25° C./60% RH, t = 2 week

## CC1=CC(=O)c2c(O)cccc2C1=O [Compound I, 5-hydroxy-2-methylnaphthalene-1,4-dione]
[1]; combination of Compound I and castration
  Tumor size relative to initial size: 157%
[1]; oral formulation of Compound I alone (680% castrated, 656% untreated)
  Tumor size relative to initial size: 293%
[1]; p=0.048
  Effectiveness of combination with castration vs Compound I alone: twice as effective
[2]; 10 mg/kg/day
  Toxicity observed in rats: Very little toxicity
[2]; 10 mg/kg/day low-dose level
  Compound I-related effects: limited to minimal changes noted in the teeth of one male
[2]; 30 mg/kg/day, both sexes
  Microscopic findings: Minimal to mild non-adverse microscopic abnormalities in various organs
[2]; 30 mg/kg/day, oral gavage, seven days
  Clinical chemistry findings: minimal increases in mean serum total bilirubin concentration and alkaline phosphatase activity
[2]; 100 mg/kg/day, beginning on day 3, early termination of all animals on Day 5
  Morbidity/mortality: Morbidity/mortality occurred both in male and female rats
[3]
  Solubility in Carrier A: well soluble
  Solubility in aqueous media: mostly insoluble
  Solubility in mixtures of triacylglycerols: good solubility
  Solubility in organic solvents: good solubility
[3]; pH 1, aqueous buffer
  solubility thermodynamic: 48 µg/mL (≈ 255 µM)
[3]; pH 2, aqueous buffer
  solubility thermodynamic: 45 µg/mL (≈ 239 µM)
[3]; pH 3, aqueous buffer
  solubility thermodynamic: 49 µg/mL (≈ 260 µM)
[3]; pH 4, aqueous buffer
  solubility thermodynamic: 16 µg/mL (≈ 85 µM)
[3]; pH 5, aqueous buffer
  solubility thermodynamic: 46 µg/mL (≈ 244 µM)
[3]; pH 6, aqueous buffer
  solubility thermodynamic: 44 µg/mL (≈ 234 µM)
[3]; pH 7, aqueous buffer
  solubility thermodynamic: 49 µg/mL (≈ 260 µM)
[3]; pH 8, aqueous buffer
  solubility thermodynamic: 43 µg/mL (≈ 229 µM)
[3]; pH 9, aqueous buffer
  solubility thermodynamic: 75 µg/mL (≈ 399 µM)
[3]; pH 10, aqueous buffer
  solubility thermodynamic: 240 µg/mL (≈ 1280 µM)
[3]; water
  solubility thermodynamic: 72 µg/mL (≈ 383 µM)
[4]; 1% TW20, 25° C./60% RH, t = 0
  Solution Stability in Selected Solvents, Purity: 97.00 % Area
[4]; 1% TW20, 25° C./60% RH, t = 1 week, precipitation observed
  Solution Stability in Selected Solvents, Purity: 64.23^‡ % Area
[4]; 1% TW20, 25° C./60% RH, t = 2 week, precipitation observed
  Solution Stability in Selected Solvents, Purity: 50.47^‡ % Area
[4]; 1% TW20, 40° C./75% RH, t = 1 week, precipitation observed
  Solution Stability in Selected Solvents, Purity: 47.19^‡ % Area
[4]; 1% TW20, 40° C./75% RH, t = 2 week, precipitation observed
  Solution Stability in Selected Solvents, Purity: 41.25^‡ % Area
[4]; 1% TW80, 25° C./60% RH, t = 0
  Solution Stability in Selected Solvents, Purity: 95.11 % Area
[4]; 1% TW80, 25° C./60% RH, t = 1 week, precipitation observed
  Solution Stability in Selected Solvents, Purity: 57.32^‡ % Area
[4]; 1% TW80, 25° C./60% RH, t = 2 week, precipitation observed
  Solution Stability in Selected Solvents, Purity: 47.62^‡ % Area
[4]; 1% TW80, 40° C./75% RH, t = 1 week, precipitation observed
  Solution Stability in Selected Solvents, Purity: 42.07^‡ % Area
[4]; 1% TW80, 40° C./75% RH, t = 2 week, precipitation observed
  Solution Stability in Selected Solvents, Purity: 40.53^‡ % Area
[4]; 10% HPβCD, 25° C./60% RH, t = 0
  Solution Stability in Selected Solvents, Purity: 99.49 % Area
[4]; 10% HPβCD, 25° C./60% RH, t = 1 week
  Solution Stability in Selected Solvents, Purity: 97.41 % Area
[4]; [5]
  Solution Stability in Selected Solvents, % Potency: 91.09%
  Solution Stability in Selected Solvents, Purity: 94.73 % Area
[4]; 10% HPβCD, 40° C./75% RH, t = 1 week
  Solution Stability in Selected Solvents, Purity: 91.22 % Area
[4]; 10% HPβCD, 40° C./75% RH, t = 2 week
  Solution Stability in Selected Solvents, Purity: 87.69 % Area
[4]; ACN, 25° C./60% RH, t = 0
  Solution Stability in Selected Solvents, Purity: 95.56 % Area
[4]; ACN, 25° C./60% RH, t = 1 week
  Solution Stability in Selected Solvents, Purity: 93.35 % Area
[4]; ACN, 25° C./60% RH, t = 2 week
  Solution Stability in Selected Solvents, Purity: 91.03 % Area
[4]; ACN, 40° C./75% RH, t = 1 week
  Solution Stability in Selected Solvents, Purity: 93.33 % Area
[4]; ACN, 40° C./75% RH, t = 2 week
  Solution Stability in Selected Solvents, Purity: 93.59 % Area
[4]; Acetone, 25° C./60% RH, t = 0
  Solution Stability in Selected Solvents, Purity: 94.35 % Area
[4]; Acetone, 25° C./60% RH, t = 1 week
  Solution Stability in Selected Solvents, Purity: 93.49 % Area
[4]; Acetone, 25° C./60% RH, t = 2 week
  Solution Stability in Selected Solvents, Purity: 92.27 % Area
[4]; Acetone, 40° C./75% RH, t = 1 week
  Solution Stability in Selected Solvents, Purity: 91.94 % Area
[4]; Acetone, 40° C./75% RH, t = 2 week
  Solution Stability in Selected Solvents, Purity: 91.52 % Area
[4]; Carrier A (NF), 25° C./60% RH, t = 3 day
  Stability of the formulation in Carrier A (sesame oil), Purity: 99.2 Area - %
[4]; Carrier A (NF), 25° C./60% RH, t = 10 day
  Stability of the formulation in Carrier A (sesame oil), Purity: 99.4 Area - %
[4]; Carrier A (NF), 40° C./75% RH, t = 3 day
  Stability of the formulation in Carrier A (sesame oil), Purity: 98.9 Area - %
[4]; Carrier A (NF), 40° C./75% RH, t = 10 day
  Stability of the formulation in Carrier A (sesame oil), Purity: 99.2 Area - %
[4]; Carrier A (NF: laboratory grade), t = 0, reported from a representative standard
  Stability of the formulation in Carrier A (sesame oil), Purity: 99.7 Area - %
[4]; Carrier A (SR), 25° C./60% RH, t = 3 day
  Stability of the formulation in Carrier A (sesame oil), Purity: 99.5 Area - %
[4]; Carrier A (SR), 25° C./60% RH, t = 10 day
  Stability of the formulation in Carrier A (sesame oil), Purity: 99.5 Area - %
[4]; Carrier A (SR), 40° C./75% RH, t = 3 day
  Stability of the formulation in Carrier A (sesame oil), Purity: 99.3 Area - %
[4]; Carrier A (SR), 40° C./75% RH, t = 10 day
  Stability of the formulation in Carrier A (sesame oil), Purity: 99.3 Area - %
